Structures can show the parent of a compound that is named as a salt. Where two headings read alike, the source gives them in different places.

Series [1] has as its target T1, S-adenosylmethionine decarboxylase (SAMDC) (Rattus norvegicus, UniProt P17708).
T1 sequence (P17708 68-333 limits assumed): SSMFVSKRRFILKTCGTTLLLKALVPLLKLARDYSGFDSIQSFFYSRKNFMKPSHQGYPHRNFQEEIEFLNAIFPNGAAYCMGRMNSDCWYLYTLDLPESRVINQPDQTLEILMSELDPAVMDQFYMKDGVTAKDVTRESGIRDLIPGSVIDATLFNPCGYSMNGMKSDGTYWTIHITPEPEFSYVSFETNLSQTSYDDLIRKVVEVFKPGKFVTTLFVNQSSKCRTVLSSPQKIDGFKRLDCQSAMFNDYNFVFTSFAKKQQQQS
T1 sequence (P17708 1-67 limits assumed): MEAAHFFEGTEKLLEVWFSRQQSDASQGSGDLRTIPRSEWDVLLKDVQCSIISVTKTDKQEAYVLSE
As to the kind of experiment: Inhibition of S-adenosylmethionine decarboxylase (SAMDC). It is filed as biochemical. To be noted: read-out: IC50, inhibition of the enzyme SAMDC.

Series [2] deals with human T24 bladder carcinoma cells. Description: Inhibition of the growth of human T24 bladder carcinoma cells. The format is cell-based. The settings on record: 120 h, 5 days incubation, concentration at half the maximum inhibition. Here is the method:
The carcinoma cells (1000-1500; ATCC HB 4) are transferred to 96-well microtitre plates and are incubated overnight under the said conditions. The test compound is added in serial dilutions on day 1. The plates are incubated under the said conditions for 5 days. During that period, control cultures undergo at least 4 cell divisions. After the incubation, the cells are fixed with 3.3% (weight/volume=w/v) aqueous glutaraldehyde solution, washed with water and stained with 0.05% (w/v) aqueous methylene blue solution. After washing, the dye is eluted with 3% (w/v) aqueous hydrochloric acid. The optical density (OD) per well, which is directly proportional to the number of cells, is then measured by means of a photometer (Titertek multiskan) at 665 nm. The IC50 values are calculated by means of a computer system using the formula [formula] The IC50 value is defined as the concentration of active ingredient at which the number of cells per well at the end of the incubation period is only 50% of the number of cells in the control cultures. The inhibition of the growth of human T24 bladder carcinoma cells is measured using the method mentioned hereinbefore. The following IC50 values (concentration of the test compound at half the maximum inhibition) are determined using the following Examples: […]

Series [3] concerns human T24 bladder cell carcinomas. Description: Inhibition of the growth of T24 bladder carcinoma cells in vivo (nude mouse). On the set-up: species or system human; BALB/c nude mice. The settings on record: for T/C on i.p. administration / T/C on p.o. administration: average for 6 animals. As for the experimental part:
W. Porter (see Cancer Res. 54, 3210-3217 (1994)). Briefly, the procedure is as follows: To determine the maximum tolerable dose (MTD), the compounds according to the invention (for example dissolved in distilled water/0.9% NaCl) are injected i.p. into three mice per group. The dose is increased until the first animals die within a period of 10 days. To determine the anti-tumor activity, for example, small pieces of human T-24 bladder carcinoma cells (ATCC HTB 4) are cultured and transplanted as xenogenic transplants ("xenografts") into female BALB/c nude mice (Bomholtgarden, Copenhagen, Denmark). The anti-tumor treatment using compounds of formula I is started after at least three successive transplants. Tumor fragments weighing approximately 25 mg are transplanted into the left flank of the mouse (n=6 per group). Treatment is started as soon as the tumors have an average tumor volume of from 150 to 200 mm^3. The growth of the tumors is determined twice weekly by measuring mutually perpendicular tumor diameters. The tumor volumes are determined in the manner described by U. Regenass, H. Mett, J. Stanek, M. Muller, D. Kramer and C. W. Porter (see Cancer Res. 54 3210-3217 (1994)) and are given as relative tumor size (i.e. increase in tumor volume relative to the tumor volume at the beginning of treatment) in T/C % (percent treated/control). The test compounds are dissolved in distilled water and diluted with 3 volumes of 0.9% (w/v) NaCl in water.
Using the method mentioned hereinbefore (see also Regenass et al., Cancer Res. 54, 3210-3217 ([…])), the compound of Example 2 of the present Application is administered in accordance with the following treatment scheme to BALB/c nude mice with transplanted human T24 bladder cell carcinomas: The compound is administered p.o. (50, 25 and 12.5 mg/kg) or i.p. (12.5, 6.25 and 3.13 mg/kg). The compound is dissolved in distilled water and diluted with 3 volumes of 0.9% NaCl (w/v) in water.

A short description of series [4]: Maximum tolerable dose (MTD). To be noted: mouse, in vivo, read-out: maximum tolerated dose. On the set-up: species or system mice.

Regarding `N=C(N)c1cccc2c1CCC2=NN1CCN=C1N` [Example 20, 1-[4-(Amidino)-2,3-dihydro-1H-inden-1-ylideneamino]-2-amino-4,5-di-hydro-imidazole dihydrochloride], the IC50 in series [1] came to 3.4 nM; in series [2] it was 280 nM.

On to `N=C(N)c1cccc2c1CCC2=Nn1cc(-c2ccc(Cl)cc2)nc1N` [Example 12, 1-[4-(Amidino)-2,3-dihydro-1H-inden-1-ylideneamino]-2-amino-4-(4-chlorophenyl)-imidazole dihydrochloride], for which the values for the IC50 in series [1] and in series [2] were 6.7 nM and 1550 nM, respectively.

In the case of `N=C(N)c1cccc2c1CCC2=Nn1cc(-c2ccc3ccccc3c2)nc1N` [Example 24, 1-[4-(Amidino)-2,3-dihydro-1H-inden-1-ylideneamino]-2-amino-4-(2-naphthyl)-imidazole dihydrochloride], the IC50 in series [1] was 7.5 nM; in series [2], 2460 nM.

As for `COc1cccc(-c2cn(N=C3CCc4c(C(=N)N)cccc43)c(N)n2)c1` [Example 10, 1-[4-(Amidino)-2,3-dihydro-1 1H-inden-1-ylideneamino]-2-amino-4-(3-methoxyphenyl)-imidazole dihydrochloride], the IC50 in series [1] was determined as 4.2 nM; in series [2], 2600 nM.

In the case of `N=C(N)c1cccc2c1CCC2=Nn1cc(-c2ccc(-c3ccccc3)cc2)nc1N` [Example 22, 1-[4-(Amidino)-2,3-dihydro-1H-inden-1-ylideneamino]-2-amino-4-(4-bi-phenylyl)-imidazole dihydrochloride], the IC50 in series [1] was 11 nM; in series [2], 440 nM.

Molecule `N=C(N)c1cccc2c1CCC2=Nn1ccnc1N` [Example 26, 1-[4-(Amidino)-2,3-dihydro-1H-inden-1-ylideneamino]-2-amino-imidazole dihydrochloride] yielded an IC50 in series [2] of 2150 nM.

For `CCc1cn(N=C2CCc3c(C(=N)N)cccc32)c(N)n1` [Example 18, 1-[4-(Amidino)-2,3-dihydro-1H-inden-1-ylideneamino]-2-amino-4-ethyl-imidazole dihydrochloride], the IC50 in series [1] came out at 6.1 nM; in series [2], 1500 nM.

For the molecule `COc1ccc(OC)c(-c2cn(N=C3CCc4c(C(=N)N)cccc43)c(N)n2)c1` [Example 8, 1-[4-(Amidino)-213-dihydro-1H-inden-1-ylideneamino]-2-amino-4-(2,5-di-methoxyphenyl)-imidazole dihydrochloride], the IC50 in series [1] was 8.9 nM; in series [2] it was 1600 nM.

On to `COc1ccc(-c2cn(N=C3CCc4c(C(=N)N)cccc43)c(N)n2)cc1` [Example 4, 1-[4-(Amidino)-2,3-dihydro-1H-inden-1-ylideneamino]-2-amino-4-(4-methoxvphenyl)-imidazole dihydrochloride], for which the IC50 in series [1] worked out at 3.6 nM; in series [2] it was 2000 nM.

In the case of `N=C(N)c1cccc2c1CCC2=Nn1cc(-c2ccccc2)nc1N` [Example 2, 1-[4-(Amidino)-2,3-dihydro-1H-inden-1: -ylideneamino]-2-amino-4-phenyl-imidazole dihydrochloride], the IC50 in series [1] came out at 2 nM; in series [2], 1160 nM. Moreover, the results for the “T/C on i.p. administration” value in series [3] (3.13 mg/kg), in series [3] (6.25 mg/kg) and in series [3] (12.5 mg/kg) were 34%, 22% and 16%, respectively. Besides, in series [3] (oral and intraperitoneal administration), the “growth of T24 bladder carcinoma cells in vivo (in words)” value was “inhibits the growth of T24 bladder carcinoma cells”. Also, the “dose-dependence of tumor growth inhibition” value in series [3] (p.o. and i.p.) was “dose-dependence of the action is observed”. For the same molecule, the “T/C on p.o. administration” value in series [3] (12.5 mg/kg) came to 68%; in series [3] (25 mg/kg) it was 47%; in series [3] (50 mg/kg) it was 31%. The MTD at 240 h in series [4] (ip) is 125 mg/kg; in series [4] (po), above 500 mg/kg.

As to `CC(C)(C)c1ccc(-c2cn(N=C3CCc4c(C(=N)N)cccc43)c(N)n2)cc1` [Example 28, 1-[4-(Amidino)-2,3-dihydro-1H-inden-1-ylideneaminol-2-amino-4-(4-tert-butylphenyl)-imidazoledihydrochloride], the figures for the IC50 in series [1] and in series [2] were 5.4 nM and 230 nM, respectively.

For `COc1ccccc1-c1cn(N=C2CCc3c(C(=N)N)cccc32)c(N)n1` [Example 6, 1-[4-(Armidino)-2,3-dihydro-1H-inden-1-ylideneamino]-2-amino-4-(2-methoxyphenyl)-imidazole dihydrochloride], the IC50 came to 8.4 nM in series [1] and 1200 nM in series [2].

On to `Cc1ccc(-c2cn(N=C3CCc4c(C(=N)N)cccc43)c(N)n2)cc1` [Example 14, 1-[4-(Amidino)-2,3-dihydro-1H-inden-1-ylideneamino]-2-amino-4-(4-tolyl)-imidazole dihydrochloride], for which the IC50 worked out at 3.4 nM in series [1] and 1120 nM in series [2].

On to `N=C(N)c1cccc2c1CCC2=Nn1cc(-c2ccc(F)cc2)nc1N` [Example 16, 1-[4-(Amidino)-2,3-dihydro-1H-inden-1-ylideneamino]-2-amino-4-(4-fluoro-phenyl)-imidazole dihydrochloride], for which the IC50 was 4 nM in series [1] and 2700 nM in series [2].
